The values below come from patent US11827628B2, “Compositions and methods for inhibition of the JAK pathway” (Rigel Pharmaceuticals, Inc., priority 2005, dated 2023).

One may read the IC50 as the concentration that gives 50% inhibition.

Where a name gives a salt, the structure may show the parent alone.

The first assay deals with IL-4 stimulated expression of CD23 in human Ramos B cells (JAK-1 and JAK-3). The experiment in a line: Assay for Ramos B-Cell Line Stimulated with IL-4 (CD23 upregulation, FACS). The format is cell-based. Particulars: Homo sapiens, Ramos, Ramos B cells stimulated with IL-4, CD23 expression by FACS; read-out: IC50, Example 41. An excerpt:
One means of assaying for such inhibition is detection of the effect of the 2,4-substituted pyrimidinediamine compounds on the upregulation of downstream gene products. In the Ramos/IL4 assay, B-cells are stimulated with the cytokine Interleukin-4 (IL-4) leading to the activation of the JAK/Stat pathway through phosphorylation of the JAK family kinases, JAK1 and JAK3, which in turn phosphorylate and activate the transcription factor Stat-6. […] To study the effect of inhibitors (e.g., the 2,4-substituted pyrimindinediamine compounds described herein) on the JAK1 and JAK3 kinases, human Ramos B cells are stimulated with human IL-4. Twenty to 24 hours post stimulation, cells are stained for upregulation of CD23 and analyzed using flow cytometry (FACS). […] An exemplary assay of this type is described in greater detail in Example 41
B-cells stimulated with cytokine Interleukin-4 (IL-4) activate the JAK/Stat pathway through phosphorylation of the JAK family kinases, JAK-1 and JAK-3, which in turn phosphorylate and activate the transcription factor Stat-6. […] To study the effect of inhibitors on the JAK family kinases, human Ramos B cells are stimulated with human IL-4.
The Ramos B-cell line was acquired from ATCC (ATCC Catalog No. CRL-1596). The cells were cultured in RPMI 1640 (Cellgro, MediaTech, Inc., Herndon, VA, Cat No. 10-040-CM) with 10% fetal bovine serum (FBS), heat inactivated (JRH Biosciences, Inc, Lenexa, Kansas, Cat No. 12106-500M) according to ATCC propagation protocol. Cells were maintained at a density of 3.5×10^5. The day before the experiment, Ramos B-cells were diluted to 3.5×10^5 cells/mL to ensure that they were in a logarithmic growth phase.
Cells were spun down and suspended in RPMI with 5% serum. 5×10^4 cells were used per point in a 96-well tissue culture plate. Cells were pre-incubated with compound or DMSO (Sigma-Aldrich, St. Louis, MO, Cat No. D2650) vehicle control for 1 hour in a 37° C. incubator. Cells were then stimulated with IL-4 (Peprotech Inc., Rocky Hill, NJ, Cat No. 200-04) for a final concentration of 50 units/mL for 20-24 hours. Cells were then spun down and stained with anti-CD23-PE(BD Pharmingen, San Diego, CA, Cat No. 555711) and analyzed by FACS. Detection was performed using a BD LSR I System Flow Cytometer, purchased from Becton Dickinson Biosciences of San Jose, California The IC50 calculated based on the results of this assay are provided in TABLE XII.
Regarding `CCN(CC)S(=O)(=O)c1ccc(OC)c(Nc2nc(Nc3ccc(Cl)c(Cl)c3)cc(C(=O)OC)n2)c1` [Compound X-1, 6-carbonylmethoxy-N4-(3,4-dichlorophenyl)-N2-(3-N,N-diethylaminosulfonyl-6-methoxyphenyl)-2,4-pyrimidinediamine], the IC50 stood at 8.25 µM.

Staying with this assay, now noted: Homo sapiens, Ramos, Ramos B-cell line stimulated with IL-4; CD23 expression by FACS; read-out: IC50, Example 41.
Consider `NS(=O)(=O)c1ccc(Nc2ncc(F)c(Nc3ccc(OCC(=O)N4CCOCC4)cc3)n2)cc1` [Compound I-210, N2-(4-Aminosulfonylphenyl)-5-fluoro-N4-[4-(2-morpholin-4-yl-2-oxo-ethoxy)phenyl]-2,4-pyrimidinediamine], for which the IC50 worked out at 0.866 µM.

As to `NS(=O)(=O)c1cccc(Nc2ncc(F)c(Nc3ccc(OCC(=O)N4CCOCC4)cc3)n2)c1` [Compound I-211, N2-(3-Aminosulfonylphenyl)-5-fluoro-N4-[4-(2-morpholin-4-yl-2-oxo-ethoxy)phenyl]-2,4-pyrimidinediamine], the IC50 was found to be 1.05 µM.

With `Cc1ccc(Nc2ncc(F)c(Nc3ccc(OCC(=O)N4CCOCC4)cc3)n2)cc1S(N)(=O)=O` [Compound I-212, N2-(3-Aminosulfonyl-4-methylphenyl)-5-fluoro-N4-[4-(2-morpholin-4-yl-2-oxo-ethoxy)phenyl]-2,4-pyrimidinediamine], the IC50 was determined as 0.758 µM.

As to `CCC(=O)NS(=O)(=O)c1cc(Nc2ncc(F)c(Nc3ccc(OCC(=O)OC)cc3)n2)ccc1C` [Compound I-213, 5-Fluoro-N4-(4-methoxycarbonylmethoxyphenyl)-N2-(4-methyl-3-propionylaminosulfonylphenyl)-2,4-pyrimidinediamine], the IC50 amounted to 11.5 µM.

The assay is the same for the next values; noted with them: Ramos B cells stimulated with IL-4, CD23 expression by FACS; read-out: IC50, Example 41.
As to `Cc1ccc(Nc2ncc(F)c(Nc3ccc4c(c3)N(Cc3ccccn3)C(=O)CO4)n2)cc1S(N)(=O)=O` [Compound V-2, N2-(3-Aminosulphonyl-4-methylphenyl)-5-fluoro-N4-[3-oxo-4-(2-pyridylmethy)-benz[1,4]oxazin-6-yl]-2,4-pyrimidinediamine], the IC50 amounted to 1.18 µM.

Consider `Cc1ccc(Nc2ncc(F)c(Nc3ccc4sc(CCC#N)cc4c3)n2)cc1S(N)(=O)=O` [Compound V-16, N2-(3-Aminosulfonyl-4-methylphenyl)-N4-(2-cyanoethylene-benzothiophen-5-yl)-5-fluoro-2,4-pyrimidinediamine], for which the IC50 came out at 8.37 µM.

The same assay, now with this note: Ramos B-cell line stimulated with IL-4; CD23 expression by FACS; read-out: IC50, Example 41.
With `CCN(CC)CCNS(=O)(=O)c1cccc(Nc2ncc(F)c(Nc3cccc(OCc4cccnc4)c3)n2)c1` [Compound I-187, N2-[3-(2-N,N-Diethylaminoethyl)aminosulfonylphenyl)-5-fluoro-N4-[3-(3-pyridinyl)methyleneoxyphenyl]-2,4-pyrimidinediamine], the IC50 was 2.91 µM.

With `Cc1ccc(Nc2ncc(F)c(Nc3ccc(OCc4n[nH]c(=O)[nH]4)cc3)n2)cc1S(N)(=O)=O` [Compound I-202, N2-(3-Aminosulfonyl-4-methylphenyl)-5-fluoro-N4-[4-(2,4-dihydro-3-oxo-1,2,4-triazol-5-yl)methyleneoxyphenyl]-2,4-pyrimidinediamine], the IC50 stood at 3.08 µM.

For the molecule `NS(=O)(=O)c1cccc(Nc2ncc(F)c(Nc3ccc(OCCN4CCOCC4)cc3)n2)c1` [Compound I-206], the IC50 stood at 0.726 µM.

In the case of `Cc1ccc(Nc2nc(Nc3cccc(S(N)(=O)=O)c3)ncc2F)cc1OCC(=O)N1CCOCC1` [Compound I-208, N2-(3-Aminosulfonylphenyl)-5-fluoro-N4-[4-methyl-3-(2-morpholinocarbonylmethyleneoxy)phenyl]-2,4-pyrimidinediamine], the IC50 was 1.4 µM.

As for `COC(=O)CNS(=O)(=O)c1cccc(Nc2ncc(F)c(Nc3ccc(OCc4cc(C)on4)cc3)n2)c1` [Compound I-215, 5-Fluoro-N2-[3-(N-methoxycarbonylmethylene)aminosulfonylphenyl]-N4-[4-(5-methylisoxazol-3-yl)methyleneoxyphenyl]-2,4-pyrimidinediamine], the IC50 turned out to be 0.976 µM.

On to `Cc1cc(COc2ccc(N(C)c3nc(Nc4ccc(C)c(S(N)(=O)=O)c4)ncc3F)cc2)no1` [Compound I-225, N2-(3-Aminosulfonyl-4-methylphenyl)-5-fluoro-N4-methyl-N4-[4-(5-methylisoxazol-3-yl)methyleneoxyphenyl]-2,4-pyrimidinediamine], for which the IC50 came to 0.7 µM.

Take `Cc1cc(COc2ccc(N(C)c3nc(Nc4ccc(C)c(S(N)(=O)=O)c4)ncc3F)cc2F)no1` [Compound I-226, N2-(3-Aminosulfonyl-4-methylphenyl)-5-fluoro-N4-[3-fluoro-4-(5-methylisoxazol-3-yl)methyleneoxyphenyl]-N4-methyl-2,4-pyrimidinediamine]: the IC50 turned out to be 0.498 µM.

Regarding `COC(=O)CN(c1ccc(OCc2cc(C)on2)cc1)c1nc(Nc2ccc(C)c(S(N)(=O)=O)c2)ncc1F` [Compound I-227, N2-(3-Aminosulfonyl-4-methylphenyl)-5-fluoro-N4-methoxycarbonylmethyl-N4-[4-(5-methylisoxazol-3-yl)methyleneoxyphenyl]-2,4-pyrimidinediamine], the IC50 was 1.48 µM.

`CCC(=O)NS(=O)(=O)c1cc(Nc2ncc(F)c(Nc3ccc(OCc4cc(C)on4)cc3)n2)ccc1C` [Compound I-228, 5-Fluoro-N4-[4-(5-methylisoxazol-3-yl)methyleneoxyphenyl]-N2-(4-methyl-3-propionylaminosulfonylphenyl)-2,4-pyrimidinediamine]: the IC50 is 3.81 µM.

As for `Cc1cc(COc2ccc(Nc3nc(Nc4ccc(C)c(S(=O)(=O)NC(=O)C(C)C)c4)ncc3F)cc2)no1` [Compound I-229, 5-Fluoro-N4-[4-(5-methylisoxazol-3-yl)methyleneoxyphenyl]-N2-(4-methyl-3-(2-methylpropionyl)aminosulfonylphenyl)-2,4-pyrimidinediamine], the IC50 worked out at 3.76 µM.

In the case of `CC(=O)NS(=O)(=O)c1cccc(Nc2ncc(F)c(Nc3ccc(OCc4cc(C)on4)cc3)n2)c1` [Compound I-232, N2-(3-Acetamidosulfonylphenyl)-5-fluoro-N4-[4-(5-methylisoxazol-3-yl)methyleneoxyphenyl]-2,4-pyrimidinediamine], the concentration for half-maximal inhibition (IC50) was 1.43 µM.

Turning to `CCC(=O)NS(=O)(=O)c1cccc(Nc2ncc(F)c(Nc3ccc(OCc4cc(C)on4)cc3)n2)c1` [Compound I-236], the IC50 was 1.98 µM.

As for `Cc1cc(COc2ccc(Nc3nc(Nc4cccc(S(=O)(=O)NCc5oc(=O)oc5C(C)(C)C)c4)ncc3F)cc2)no1` [Compound I-250, N2-{3-[(N-5-t-Butyl-1,3-dioxolene-2-one-4-yl)methylene]aminosulfonylphenyl}-5-fluoro-N4-[4-(5-methylisoxazol-3-yl)methyleneoxyphenyl]-2,4-pyrimidinediamine], the IC50 amounted to 0.673 µM.

Turning to `CNS(=O)(=O)c1ccc(Nc2ncc(F)c(Nc3ccc(OC(F)(F)F)c(Cl)c3)n2)cc1OC` [Compound I-269, 5-fluoro-N2-(4-N-methylaminosulfonyl)-3-methoxyphenyl-N4-(4-trifluoromethoxy-3-chlorophenyl)-2,4-pyrimidinediamine], the IC50 stood at 0.917 µM.

Take `CNS(=O)(=O)c1ccc(Nc2ncc(F)c(Nc3cccc(O)c3)n2)cc1OC` [Compound I-270]: the IC50 was found to be 0.78 µM.

As for `Cc1nc(COc2ccc(Nc3nc(Nc4cccc(S(=O)(=O)N5CCN(C)CC5)c4)ncc3F)cc2)no1` [Compound I-274, 5-Fluoro-N4-[4-(5-methyl-1,2,4-oxadiazol-3-yl)methoxy]phenyl-N2-[3-(4-methylpiperazin-1-yl)sulfonyl]phenyl-2,4-pyrimidinediamine], the IC50 was found to be 1.17 µM.

Staying with this assay, now noted: Ramos B-cell line stimulated with IL-4; CD23 expression by FACS; sodium salt; read-out: IC50, Example 41.
As to `CCC(=O)NS(=O)(=O)c1cccc(Nc2ncc(F)c(Nc3ccc(OCc4cc(C)on4)cc3)n2)c1` [Compound I-242, 5-Fluoro-N4-[4-(5-methylisoxazol-3-yl)methyleneoxyphenyl]-N2-(3-N-propanamido)sulfonylphenyl)]-2,4-pyrimidinediamine sodium salt], the IC50 came out at 0.52 µM.

Consider `CC(=O)NS(=O)(=O)c1cccc(Nc2ncc(F)c(Nc3ccc(OCc4cc(C)on4)cc3)n2)c1` [Compound I-243, N2-(3-Acetamidosulfonylphenyl)-5-fluoro-N4-[4-(5-methylisoxazol-3-yl)methyleneoxyphenyl]-2,4-pyrimidinediamine sodium salt], for which the IC50 turned out to be 0.917 µM.
